Experimental data published in US7615646B2, “Chiral indole intermediates and their fluorescent cyanine dyes containing functional groups” (Carnegie Mellon University, priority 2002, dated 2009).

Test: Measurement of pKa values of pH-sensitive cyanine dyes (fluorescence intensity versus pH)
Type: physicochemical
Details: for lowering of dye pKa relative to dye 1: Cl on the unquaternized indolenine unit; for pKa: observed in aqueous phosphate buffers via fluorescence, excitation 640 nm, emission 680 nm
Procedure: The general method of pKa determination was performed as follows. Purified dye was dissolved in water to give a bulk stock solution (if necessary, a limited amount of acetonitrile was added to ensure solubility). By experiment, the volume of this stock solution that was required to be added to 10.0 ml of water+0.1% v/v trifluoroacetic acid, in order to give an absorbance of 0.5±0.02 at the dye peak wavelength, was determined. This volume of bulk stock solution was then added to 10.0 ml of water, to be used as the working stock solution.
Aqueous phosphate buffers were prepared covering the region of pH 4-9 {see “Data for Biochemical Research”, p. 432, 3rd edition, R. M. C Dawson, D. C. Elliott, W. H. Elliott & K. M. Jones, 1987 Oxford University Press. Buffers outside the listed range were made by adding in orthophosphoric acid or sodium hydroxide}. Plastic fluorescence cuvettes were then charged with 3.5 ml of each buffer. A fixed volume of dye working stock solution (in the range 50-250 μl) was added to a cuvette of buffer, the solution mixed and the fluorescence signal measured immediately {Perkin Elmer LS55 fluorimeter, excitation 640 nm. Emission spectrum was scanned and fluorescence intensity value at 680 nm recorded}. This was repeated for all cuvettes. The graph of fluorescence intensity versus pH was plotted using PRISM, the data fitted to a sigmoidal dose-response curve and the pKa value extracted as the calculated IC50 value from the fitting.

Row | lowering of dye pKa relative to dye 1 | pKa | Compound
1 | ~0.8 units |  | 3-(5-carboxypentyl)-2-[(1E,3E,5E)-5-(7-chloro-3,3-dimethyl-5-sulfo-1,3-dihydro-2H-indol-2-ylidene)penta-1,3-dienyl]-3-methyl-5-sulfo-1-(4-sulfobutyl)-3H-indolium [Dye 4]
2 |  | 7 | CC1(C)C(/C=C/C=C/C=C2/Nc3ccc(S(=O)(=O)O)cc3C2(C)CCCCCC(=O)O)=[N+](CCCCS(=O)(=O)[O-])c2ccc(S(=O)(=O)O)cc21 (stereo not shown) [Dye 1, 2-{(1E,3E,5E)-5-[3-(5-carboxypentyl)-3-methyl-5-sulfo-1,3-dihydro-2H-indol-2-ylidene]penta-1,3-dienyl}-3,3-dimethyl-5-sulfo-1-(4-sulfobutyl)-3H-indolium]
3 | ~1.0 units | 6.05 | CC1(CCCCCC(=O)O)C(/C=C/C=C/C=C2/Nc3c(Cl)cc(Cl)cc3C2(C)C)=[N+](CCCCS(=O)(=O)[O-])c2ccc(S(=O)(=O)O)cc21 (stereo not shown) [Dye 2, 3-(5-carboxypentyl)-2-[(1E,3E,5E)-5-(5,7-dichloro-3,3-dimethyl-1,3-dihydro-2H-indol-2-ylidene)penta-1,3-dienyl]-3-methyl-5-sulfo-1-(4-sulfobutyl)-3H-indolium]
4 |  | 6.2 | CC1(CCCCCC(=O)O)C(/C=C/C=C/C=C2/Nc3c(Cl)cc(S(=O)(=O)O)cc3C2(C)C)=[N+](CCCCS(=O)(=O)[O-])c2ccc(S(=O)(=O)O)cc21 (stereo not shown) [Dye 4, 3-(5-carboxypentyl)-2-[(1E,3E,5E)-5-(7-chloro-3,3-dimethyl-5-sulfo-1,3-dihydro-2H-indol-2-ylidene)penta-1,3-dienyl]-3-methyl-5-sulfo-1-(4-sulfobutyl)-3H-indolium]
5 |  | 7 | CC1(C)C(/C=C/C=C/C=C2/Nc3ccc(S(=O)(=O)O)cc3C2(C)C)=[N+](CCCCS(=O)(=O)[O-])c2ccc(S(=O)(=O)O)cc21 [Dye 6, 2-[(1E,3E,5E)-5-(3,3-dimethyl-5-sulfo-1,3-dihydro-2H-indol-2-ylidene)penta-1,3-dienyl]-3,3-dimethyl-5-sulfo-1-(4-sulfobutyl)-3H-indolium]
6 | 0.3-0.4 units |  | CC1(C)C(/C=C/C=C/C=C2/Nc3ccc(Cl)cc3C2(C)C)=[N+](CCCCS(=O)(=O)[O-])c2ccc(S(=O)(=O)O)cc21 [Dye 7, 2-[(1E,3E,5E)-5-(5-chloro-3,3-dimethyl-1,3-dihydro-2H-indol-2-ylidene)penta-1,3-dienyl]-3,3-dimethyl-5-sulfo-1-(4-sulfobutyl)-3H-indolium]
7 |  | 6.2 | CC1(CCCCCC(=O)ON2C(=O)CCC2=O)C(/C=C/C=C/C=C2/Nc3c(Cl)cc(S(=O)(=O)O)cc3C2(C)C)=[N+](CCCCS(=O)(=O)[O-])c2ccc(S(=O)(=O)O)cc21 (stereo not shown) [Dye 16.3, 3-(5-Carboxypentyl)-2-[(1E,3E,5E)-5-(7-chloro-3,3-dimethyl-5-sulfo-1,3-dihydro-2H-indol-2-ylidene)penta-1,3-dienyl]-3-methyl-5-sulfo-1-(4-sulfobutyl)-3H-indolium, N-hydroxysuccinimidyl ester]
8 |  | 7 | CC1(C)C(/C=C/C=C/C=C2/Nc3ccccc3C2(C)C)=[N+](CCCCS(=O)(=O)[O-])c2ccc(S(=O)(=O)O)cc21 [Example 5]
9 |  | 6.65 | CC1(C)C(/C=C/C=C/C=C2/Nc3ccc(Cl)cc3C2(C)C)=[N+](CCCCS(=O)(=O)[O-])c2ccc(S(=O)(=O)O)cc21 [Example 7]
10 |  | 6.65 | CC1(C)C(/C=C/C=C/C=C2/Nc3ccc(C#N)cc3C2(C)C)=[N+](CCCCS(=O)(=O)[O-])c2ccc(S(=O)(=O)O)cc21 [Example 8]
11 |  | 7.36 | CC1(C)C(/C=C/C=C/C=C2/Nc3ccc(S(=O)(=O)O)cc3C2(C)C)=[N+](CCCCS(=O)(=O)[O-])c2ccc(Cl)cc21 [Example 9]

Row | Compound | lowering of dye pKa relative to dye 1 | pKa
12 | CC1(C)C(/C=C/C=C/C=C2/Nc3ccc(S(=O)(=O)O)cc3C2(C)CCCCCC(=O)O)=[N+](CCCCS(=O)(=O)[O-])c2ccc(Cl)cc21 (stereo not shown) [Example 3] |  | 7.44
